Measurements published in ChEMBL document CHEMBL1123114, “Structure-activity relationships of arylimidazopyridine cardiotonics: discovery and inotropic activity of 2-[2-methoxy-4-(methylsulfinyl)phenyl]-1H-imidazo[4,5-c]pyridine” (1985).

Key:
Felis catus [1] = organism: Felis catus; test: Compound tested for contractility in isolated cat papillary muscle at 10 e-4 M.; type: functional
Felis catus [2] = organism: Felis catus; test: Compound tested for contractility in isolated cat papillary muscle at 10 e-5 M.; type: functional
Felis catus [3] = organism: Felis catus; test: Response ratio = (percent increase to drug)/(percent increase to 10 E-4 M isoproterenol); type: functional
Felis catus [4] = organism: Felis catus; test: Response ratio = (percent increase to drug)/(percent increase to 10 E-5 M isoproterenol); type: functional
Canis familiaris [5] = test: Compound tested for contractility in anesthetized dog when administered intravenously.; type: functional; settings: Canis lupus familiaris, iv
Canis familiaris [6] = test: Percent change in heart rate in anesthetized dog; type: functional, Canis lupus familiaris
Canis familiaris [7] = test: Percent change in mean arterial blood pressure in anesthetized dog; type: functional, Canis lupus familiaris

SMILES | Control (Felis catus [1]) [%] | Control (Felis catus [2]) [%] | Response ratio (Felis catus [3]) | Response ratio (Felis catus [4]) | ED50 (Canis familiaris [5]) [mg/kg] | Change (Canis familiaris [6]) [%] | Change (Canis familiaris [7]) [%]
Cc1ccc(-c2nc3cc[nH]cc-3n2)cc1C | 226 | 133 | 1.75 | 0.46 | 5.2 | 0 | -53
Nc1cc(-c2ccncc2)c[nH]c1=O [INAMRINONE] | 190 | 143 | 1.25 | 0.61 | 1.3 | 11 | -9
CCCOc1cc([S+](C)[O-])ccc1-c1nc2cc[nH]cc-2n1 (stereo unspecified) | 159 | 122 | 0.82 | 0.3 | 1 | 10 | -33
COc1cc(S(C)(=O)=O)ccc1-c1nc2ccncc2[nH]1 | 221 | 176 | 1.68 | 1.05 | 0.02 | 8 | -5
CCSCCOc1cc(OC)ccc1-c1nc2cc[nH]cc-2n1 | 134 | 128 | 0.47 | 0.39 | 1 | 20 | -21
c1ccc(-c2nc3cc[nH]cc-3n2)cc1 | 242 | 106 | 1.97 | 0.08 | 2.5 | 13 | -15
Cc1ccccc1-c1nc2cc[nH]cc-2n1 | 188 | 106 | 1.22 | 0.09 | 2.2 | 24 | -20
COc1cc(C(F)(F)F)ccc1-c1nc2cc[nH]cc-2n1 | 135 | 139 | 0.49 | 0.54 | 0.009 | 10 | -12
COc1ccc(-c2nc3c[nH]cnc-3n2)c(OC)c1 | 215 | 117 | 1.59 | 0.24 | 0.3 | 7 | -15
Clc1ccc(-c2nc3cc[nH]cc-3n2)c(Cl)c1 | 171 | 116 | 0.99 | 0.22 | 0.7 | 17 | -22
COc1cc(C)ccc1-c1nc2cc[nH]cc-2n1 | 202 | 117 | 1.42 | 0.24 | 0.28 | 8 | -7
COc1ccc(-c2nc3cc[nH]cc-3n2)cc1 | 205 | 104 | 1.46 | 0.07 | 1.7 | 17 | -14
COc1cc(OS(C)(=O)=O)ccc1-c1nc2cc[nH]cc-2n1 | 326 | 240 | 3.13 | 1.94 | 0.006 | 17 | -25
COc1ccc(-c2nc3ccc[nH]c-3n2)c(OC)c1 | 264 | 172 | 2.27 | 1 | 0.8 | 18 | -22
COc1ccc(-c2nc3cc[nH]cc-3n2)c(OCC[S+](C)[O-])c1 (stereo unspecified) | 186 | 123 | 1.19 | 0.32 | 5.2 | -4 | -37
COc1cc([S+](C)[O-])ccc1-c1nc2cccnc2[nH]1 (stereo unspecified) [SULMAZOLE] | 156 | 112 | 0.78 | 0.16 | 0.3 | 13 | -10
CS(=O)(=O)c1ccc(-c2nc3cc[nH]cc-3n2)cc1 | 137 | 117 | 0.51 | 0.24 | 7.5 | 10 | 2
COc1ccc(-c2nc3cc[nH]cc-3n2)c(OC)c1 | 172 | 158 | 1 | 0.81 | 0.3 | 9 | -17
Cc1cccc(-c2nc3cc[nH]cc-3n2)c1 | 195 | 118 | 1.32 | 0.25 | 1 | 17 | -20
CCCOc1cc(OC)ccc1-c1nc2cc[nH]cc-2n1 | 336 | 134 | 3.27 | 0.47 | 1.3 | -7 | -59
COc1cc(S(C)(=O)=O)ccc1-c1nc2ccc[nH]c-2n1 | 129 | 120 | 0.4 | 0.28 | 0.4 | 10 | -20
COc1ccc(-c2nc3cc[nH]cc-3n2)c(OCCSC)c1 | 140 | 122 | 0.55 | 0.3 | 1.1 | 4 | -21
CSc1ccc(-c2nc3cc[nH]cc-3n2)cc1 | 212 | 115 | 1.55 | 0.21 | 4 | 0 | -15
COc1ccc(-c2nc3cc[nH]cc-3n2)cc1OC | 252 | 164 | 2.11 | 0.89 | 0.4 | 15 | -9
Cc1ccc(-c2nc3cc[nH]cc-3n2)c(C)c1 | 100 | 93 | 0 | -0.1 | 1.4 | 12 | -24
c1ccc(-c2nc3ccc[nH]c-3n2)cc1 | 112 | 101 | 0.15 | 0.01 | 8 | 7 | -36
COc1cc([S+](C)[O-])ccc1-c1nc2cnccc2[nH]1 (stereo unspecified) [ISOMAZOLE] | 268 | 172 | 2.33 | 1 | 0.03 | 7 | -1
COc1cc([S+](C)[O-])ccc1-c1nc2c[nH]cnc-2n1 (stereo unspecified) | 142 | 115 | 0.58 | 0.21 | 0.6 | 8 | 14
